Values of other authors as cited in paper PMC2667333 (Molecular cell, 2009).

Test system: calcineurin (CN)
Conditions: ref Swanson et al., 1992; Yin and Ochs, 2003

| Molecule | effect on CN-mediated pNPP dephosphorylation |
| --- | --- |
| C=CC[C@@H]1/C=C(\C)C[C@H](C)C[C@H](OC)[C@H]2O[C@@](O)(C(=O)C(=O)N3CCCC[C@H]3C(=O)O[C@H](/C(C)=C/[C@@H]3CC[C@@H](O)[C@H](OC)C3)[C@H](C)[C@@H](O)CC1=O)[C@H](C)C[C@@H]2OC [FK506] | increase CN-mediated pNPP dephosphorylation |
| cyclosporin A [CsA] | increase CN-mediated pNPP dephosphorylation |
